The values that follow come from PMC11375702, “Early Preclinical Studies of Ergosterol Peroxide and Biological Evaluation of Its Derivatives” (ACS Omega, 2024).

Data set [1] can be described thus: Simulated gastric fluid (SGF) stability. To be noted: simulated gi fluid; for half-life: SGF stability t1/2. In kind it is in vitro ADME. The protocol:
The simulated gastric fluid (SGF) assay is an important element in determining the overall drug-like potential of compounds.[29],[30] Anecdotal studies of oral consumption of extracts by humans indicate positive outcomes of digestion of mixtures of EP and its related natural products found in G. lucidum.[2] […] Chlorambucil was used as positive control as previously described.[32],[33] […] Caco-2 permeability studies were conducted to validate and to provide information on EP’s ability to cross the intestinal barrier and its potential for interactions with drug transporters.[36]−[39] The rate of transport in both directions (A-B and B-A) across the cell monolayer enables an efflux ratio (B-A/A-B) to be determined, enabling us to determine if a compound undergoes active efflux (efflux ratio ≥2).

Data set [2] in a line: Caco-2 permeability assay. To be noted: human; for efflux ratio at 2 h, 10 µmol/L: Caco-2, pH 7.4, Caco-2, read-out: efflux ratio (B2A/A2B); for Papp A→B at 2 h, 10 µmol/L / Papp B→A at 2 h, 10 µmol/L: Caco-2, pH 7.4; for Papp A→B at 2 h, 10 µmol/L: apical to basolateral; for Papp B→A at 2 h, 10 µmol/L: basolateral to apical. The class given is in vitro ADME. As to the method: It was performed in the 96-well Transwell system with a modified method.[36] Caco-2 cells were maintained at 37 °C in a humidified incubator with an atmosphere of 5% CO2. The cells were cultured in MEM containing 20% FBS in […], 100 units/mL penicillin, and 100 μg/mL of streptomycin. The Caco-2 cells were seeded onto inserts of a 96-well plate at a density of 0.5 × 10^5 cells/insert and cultured in the MEM containing 20% FBS for 7 days. Each cultured monolayer on the 96-well plate was washed twice with HBSS/HEPES (10 mM, pH 7.4). The permeability assay was initiated by the addition of each compound solution (10 μmol/L) into inserts (apical side, A) or receivers (basolateral side, B). The Caco-2 cell monolayers were incubated for 2 h at 37 °C. Fractions were collected from receivers (if apical to basal permeability) or inserts (if basal to apical permeability), and concentrations were assessed by UPLC/MS (Waters; Milford, MA). All compounds were tested in triplicates. The A → B (or B → A) apparent permeability coefficients ([…]) of each compound were calculated using the equation Pappa = dQ/dt × 1/AC0. The flux of a drug across the monolayer is dQ/dt (μmol/s). The initial drug concentration on the apical side is C0 (μmol/L). The surface area of the monolayer is A (cm^2).
(Caco-2 monolayers are a common model of the intestinal barrier.)

A short description of data set [3]: Metabolic stability in mouse liver microsomes. The conditions noted are these: female, CD-1, pooled liver microsomes, read-out: metabolic stability (mouse) t1/2 (converted). In kind it is in vitro ADME.
Method: (§1) Human and/or mouse microsomal degradation was determined using multiple time points to monitor the rate of disappearance of the parent compound during incubation following the method described by Di et al.[51],[52] […] The metabolic stability was evaluated via the half-life from the least-squares fit of the multiple time points based on first-order kinetics. Waters ACQUITY-TOQ UPLC-MS-MS-UV system was used to analyze the samples as established in various MS core facilities.[51],[52]
Another data set deals with MDA-MB-231. As to the kind of experiment: CellTiter-Glo 72 h cytotoxicity assay, MDA-MB-231. In kind it is cell-based. The conditions noted are these: Homo sapiens, CTG assay, read-out: MDA-MB231 (EC50). As to the method: The following stable human cell lines were utilized for this study: SUM149 and MDA-MB-231 (breast cancer models) and BJ (human normal fibroblast, foreskin). Cells were purchased from BioIVT or the American Type Culture Collection (ATCC). Cells were cultured in F-12-Nutrient Mixture (SUM149), DMEM (MDA-MB-231), or EMEM (BJ) medium supplemented with 10% fetal bovine serum (Sigma-Aldrich, St. Louis, MO) and 2 mmol of L-glutamine, at 37 °C in a humidified 5% CO2 atmosphere (no antibiotics) as indicated by the manufacturer. Cell cultures were grown to 80–90% confluence before use, except where otherwise specified. Our cell lines are authenticated every 3 months using the CellCheck service (Idexx BioResearch, Westbrook, ME). Cells were tested for mycoplasma prior to use (MycoAlert detection Kit Lonza LT07–318) and discarded if they tested positive. A cell proliferation assay was performed using the CellTiter-Glo (Promega Corp., Madison, WI) luminescent cell viability assay kit. Cells were detached with trypsin, counted, and seeded in white polystyrene flat-bottom sterile 96-well tissue culture-treated plates (catalog no. 3917, Corning, Glendale, Arizona) and incubated overnight at 37 °C. MDA-MB231, SUM149, and BJ cells were seeded into 96-well plates at concentrations experimentally determined (0.4 × 10^4, 0.25 × 10^4, and 0.3 × 10^4 cells per well, respectively) to ensure logarithmic growth during the duration of the experiment and to prevent adverse effects on cell growth by DMSO exposure. The plates were incubated for 12 h before treatment. Stock solutions of test compounds (10 mM in DMSO) in nine 3-fold serial dilutions were dispensed. The final concentration of DMSO was 0.3% (v/v) in each well. The positive control used was staurosporine (10 μM) as the kill-all control, and the negative control used is DMSO as we have published. Staurosporine is a potent alkaloid inducer of various cell death modalities but primarily apoptosis, making it a reliable positive control for viability assays. The plates were incubated for 72 h and then quenched with CTG at 50 μL per well at RT. Plates were then incubated at RT for 20 min and centrifuged at 1000 rpm for 1 min. Luminescence was read on a CLARIOstar Plus plate reader (BMG LabTech, Ortenberg, Germany).
Three or four technical replicates were conducted for each experimental condition, and a minimum of three independent experiments were conducted for each assay. In vitro ADME values were expressed as mean ± standard deviation (SD) of at least three independent experiments. One-way analysis of variance (ANOVA) was adopted for comparisons among groups using the GraphPad Prism 10.2.3 (GraphPad Software, San Diego, CA). A difference of P < 0.05 was considered as statistically significant. Data are expressed as mean ± SEM. For CTG, the mean luminescence of each experimental treatment group was normalized as a percentage of the mean intensity of untreated controls (DMSO as vehicle). EC50 values were calculated from dose–response curve fitting via nonlinear regression using GraphPad Prism 10.2.3 (GraphPad Software, San Diego, CA). A therapeutic index (TI) between normal and tumor cell lines can be determined (EC50 non-neoplastic cell line BJ)/(EC50 cancer cell line). In vivo studies were analyzed using mixed-effects regression models to compare the changes in tumor volume over time by treatment group. Tumor volume reduction was compared using ANOVA with repeated measures, and all data was considered significant when P < 0.05.
On the technique in general: Cellular ATP, detected with luciferase, serves as a proxy for viable cell number.

The nature of data set [4]: Plasma protein binding, rapid equilibrium dialysis (mouse). In kind it is in vitro ADME. To be noted: read-out: plasma binding (mouse) protein binding (converted). The protocol:
This assay determines the plasma protein binding of a drug or compound and free drug concentration in plasma using rapid equilibrium dialysis. We use the Single-Use RED (rapid equilibrium dialysis, Thermo Scientific) devices to allow the aqueous component of plasma containing the free drug/compound through a dialysis membrane (MWCO ∼ 8000). Sample quantification is determined using a Waters ACQUITY-SOQ UPLC-MS-ELDS-UV system.
A general note: In equilibrium dialysis only unbound substance equilibrates across the membrane.

The nature of data set [5]: Metabolic stability in human liver microsomes. In kind it is in vitro ADME. To be noted: both sexes, pooled liver microsomes, read-out: metabolic stability (human) t1/2 (converted).
Method: as §1
For data set [6] the following is noted: Balb/c, mouse and human.

Bounds are passed on as bounds.

Regarding `CC(C)[C@@H](C)/C=C/[C@@H](C)[C@H]1CC[C@@H]2[C@]1(C)CC[C@H]1[C@]23C=C[C@]2(C[C@@H](O)CC[C@]12C)OO3` [Compound 2, Ergosterol peroxide], the half-life in data set [1] was above 48 h. In addition, in data set [2], the efflux ratio at 2 h, 10 µmol/L is around 1; the Papp A→B at 2 h, 10 µmol/L came out at 34.2 ×10⁻⁶ cm/s; the Papp B→A at 2 h, 10 µmol/L came to 31.9 ×10⁻⁶ cm/s. In addition, the half-life in data set [3] was 5.63 h. Further, the EC50 in the data set on MDA-MB-231 came to 18 µM. For the same compound, in data set [4], the fraction unbound was 0.14. Besides, the half-life in data set [5] is 2.74 h.

On to `CC(C)[C@@H](C)/C=C/[C@@H](C)[C@H]1CC[C@@H]2[C@]1(C)CC[C@H]1[C@]23C=C[C@]2(CC(=O)CC[C@]12C)OO3` [Compound 3], for which, in data set [1], the “SGF stability t1/2” value is 8.92 h and the half-life is around 9 h. In data set [2], the efflux ratio at 2 h, 10 µmol/L is 0.49; the Papp A→B at 2 h, 10 µmol/L came to 0.626 ×10⁻⁶ cm/s; the Papp B→A at 2 h, 10 µmol/L amounted to 0.307 ×10⁻⁶ cm/s. Further, in data set [3], the half-life is 0.9 h. In addition, in the data set on MDA-MB-231, the EC50 was determined as 7 µM. The same compound registered a plasma stability in data set [6] above 48 h. For the same compound, the half-life in data set [5] was 0.83 h.

The term Papp A→B denotes how fast a substance crosses the layer from the apical side. A higher Papp A→B goes with fast passage. By Papp B→A is commonly meant how fast a substance crosses the layer from the basolateral side. The term EC50 denotes the midpoint of the concentration-response curve.
